Blank lines part the entries; values can stand above or below the compound they belong to.
Columns and labels:
Homo sapiens = species: Homo sapiens; test: Inhibition of ADP-induced aggregation of human platelets; format: functional, organism-based
[1] = Elimination half-life after peroral administration at a dose of 0.32 (mg/kg) in rat; format: ADME, organism-based; settings: in vivo, po
[2] = Bioavailability of the drug after […] administration at a dose of 0.32 (mg/kg) in rat; format: ADME, organism-based; settings: in vivo, iv, read-out: Ba
[3] = Maximum (Peak) plasma drug concentration after single-dose administration at a dose of 0.32 (mg/kg) in rat; format: ADME, organism-based; parameters: dose 0.32 mg/kg
Rattus norvegicus [4] = test: Effective dose for in vivo activity in D-GalN/LPS-induced rat hepatic injury model; format: functional
[5] = Inhibition of ADP-induced aggregation of monkey platelets; format: functional; settings: Cercopithecidae
Prostacyclin receptor = Prostacyclin receptor (Homo sapiens, UniProt P43119); test: Inhibition of [3H]-Iloprost binding to human Prostanoid IP receptor
Sequence of Prostacyclin receptor (P43119 whole entry): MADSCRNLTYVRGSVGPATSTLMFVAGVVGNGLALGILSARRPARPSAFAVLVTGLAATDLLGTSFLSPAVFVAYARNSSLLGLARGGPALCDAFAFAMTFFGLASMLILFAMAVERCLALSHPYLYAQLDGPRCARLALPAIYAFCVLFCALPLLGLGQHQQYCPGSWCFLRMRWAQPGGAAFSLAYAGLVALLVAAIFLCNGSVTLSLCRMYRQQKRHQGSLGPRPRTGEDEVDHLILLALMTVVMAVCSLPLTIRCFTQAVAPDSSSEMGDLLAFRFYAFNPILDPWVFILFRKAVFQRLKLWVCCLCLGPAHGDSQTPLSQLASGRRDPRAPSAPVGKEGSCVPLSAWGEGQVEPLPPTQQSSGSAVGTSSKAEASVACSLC

[6] = target: Prostaglandin F2-alpha receptor (Homo sapiens, UniProt P43088); test: Inhibition of [3H]-PGF-2 binding to human Prostanoid FP receptor
Sequence of Prostaglandin F2-alpha receptor (P43088 whole entry): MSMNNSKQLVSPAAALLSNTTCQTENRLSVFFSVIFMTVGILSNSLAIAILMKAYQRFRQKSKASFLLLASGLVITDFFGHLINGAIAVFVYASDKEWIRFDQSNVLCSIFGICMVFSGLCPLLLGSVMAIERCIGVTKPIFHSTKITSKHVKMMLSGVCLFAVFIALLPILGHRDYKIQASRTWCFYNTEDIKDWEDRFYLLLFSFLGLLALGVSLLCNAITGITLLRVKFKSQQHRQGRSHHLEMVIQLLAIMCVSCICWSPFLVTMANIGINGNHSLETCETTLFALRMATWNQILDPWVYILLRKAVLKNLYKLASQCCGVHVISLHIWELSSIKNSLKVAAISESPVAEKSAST

[7] = Total body clearance of drug from the plasma after i.v. administration at a dose of 1 (mg/kg) in rat; format: ADME, organism-based; settings: iv, read-out: CLtot
[8] = Bioavailability of the drug after […] administration at a dose of 1 (mg/kg) in rat; format: ADME, organism-based; settings: in vivo, iv, read-out: Ba
[9] = target: T1, Prostaglandin D2 receptor (Homo sapiens, UniProt Q13258); test: Inhibition of [3H]PGD-2 binding to human Prostanoid DP receptor
T1 sequence (Q13258 whole entry): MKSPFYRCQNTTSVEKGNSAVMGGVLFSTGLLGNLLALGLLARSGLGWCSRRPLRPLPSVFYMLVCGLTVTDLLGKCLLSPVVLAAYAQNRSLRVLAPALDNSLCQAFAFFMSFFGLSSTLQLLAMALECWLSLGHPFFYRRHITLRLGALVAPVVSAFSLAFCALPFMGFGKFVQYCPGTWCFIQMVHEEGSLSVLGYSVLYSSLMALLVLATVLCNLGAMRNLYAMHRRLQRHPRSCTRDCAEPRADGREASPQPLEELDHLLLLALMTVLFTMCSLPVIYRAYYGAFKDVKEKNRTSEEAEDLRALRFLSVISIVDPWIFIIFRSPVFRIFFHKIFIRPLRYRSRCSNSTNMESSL

[10] = target: T2, Prostaglandin E2 receptor EP3 subtype (Homo sapiens, UniProt P43115); test: Inhibition of [3H]-PGE-2 binding to Prostanoid EP3 receptor
T2 sequence (P43115 whole entry): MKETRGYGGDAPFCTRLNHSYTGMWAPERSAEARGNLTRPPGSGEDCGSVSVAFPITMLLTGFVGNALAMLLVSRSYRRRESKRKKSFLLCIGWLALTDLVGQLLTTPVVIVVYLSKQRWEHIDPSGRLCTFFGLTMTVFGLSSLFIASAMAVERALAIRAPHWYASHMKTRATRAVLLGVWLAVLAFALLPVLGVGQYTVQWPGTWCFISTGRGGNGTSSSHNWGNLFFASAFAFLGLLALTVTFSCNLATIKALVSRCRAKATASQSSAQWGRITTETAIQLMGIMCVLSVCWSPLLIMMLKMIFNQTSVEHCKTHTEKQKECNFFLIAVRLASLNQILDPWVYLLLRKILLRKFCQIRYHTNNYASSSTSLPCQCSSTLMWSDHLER

[11] = target: Prostaglandin E2 receptor EP4 subtype (Homo sapiens, UniProt P35408); test: Inhibition of [3H]PGE-2 binding to Prostanoid EP4 receptor
Sequence of Prostaglandin E2 receptor EP4 subtype (P35408 whole entry): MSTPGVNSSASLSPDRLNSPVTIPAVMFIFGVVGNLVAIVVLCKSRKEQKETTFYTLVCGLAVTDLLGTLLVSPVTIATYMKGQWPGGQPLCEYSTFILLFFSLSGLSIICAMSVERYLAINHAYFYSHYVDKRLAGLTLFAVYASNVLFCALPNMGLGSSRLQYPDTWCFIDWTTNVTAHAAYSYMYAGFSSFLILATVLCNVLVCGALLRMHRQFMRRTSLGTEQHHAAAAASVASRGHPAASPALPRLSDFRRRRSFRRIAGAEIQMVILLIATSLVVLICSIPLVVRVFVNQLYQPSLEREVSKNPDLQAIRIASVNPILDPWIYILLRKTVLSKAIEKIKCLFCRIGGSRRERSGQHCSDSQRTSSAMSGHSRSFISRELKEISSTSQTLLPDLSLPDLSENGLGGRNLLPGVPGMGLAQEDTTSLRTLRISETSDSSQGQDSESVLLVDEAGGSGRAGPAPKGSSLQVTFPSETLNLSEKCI

[12] = Maximum (Peak) plasma drug concentration after single-dose administration at a dose of 1 (mg/kg) in rat; format: ADME, organism-based; parameters: dose 1 mg/kg
[13] = target: Prostaglandin E2 receptor EP2 subtype (Homo sapiens, UniProt P43116); test: Inhibition of [3H]PGE-2 binding to Prostanoid EP2 receptor
Sequence of Prostaglandin E2 receptor EP2 subtype (P43116 whole entry): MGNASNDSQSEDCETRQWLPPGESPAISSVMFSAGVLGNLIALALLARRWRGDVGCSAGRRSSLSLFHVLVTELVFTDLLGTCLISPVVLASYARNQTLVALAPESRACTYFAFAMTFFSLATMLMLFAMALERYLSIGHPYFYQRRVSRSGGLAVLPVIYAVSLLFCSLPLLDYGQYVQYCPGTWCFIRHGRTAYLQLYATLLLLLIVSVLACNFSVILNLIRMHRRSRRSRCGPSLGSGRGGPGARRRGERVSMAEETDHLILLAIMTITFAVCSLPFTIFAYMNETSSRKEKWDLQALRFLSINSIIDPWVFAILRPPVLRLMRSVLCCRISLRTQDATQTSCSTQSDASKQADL

Thromboxane A2 receptor = target: T3, Thromboxane A2 receptor (Homo sapiens, UniProt P21731); test: Inhibition of [3H]SQ-29,548 binding to human Prostanoid TP receptor
T3 sequence (P21731 whole entry): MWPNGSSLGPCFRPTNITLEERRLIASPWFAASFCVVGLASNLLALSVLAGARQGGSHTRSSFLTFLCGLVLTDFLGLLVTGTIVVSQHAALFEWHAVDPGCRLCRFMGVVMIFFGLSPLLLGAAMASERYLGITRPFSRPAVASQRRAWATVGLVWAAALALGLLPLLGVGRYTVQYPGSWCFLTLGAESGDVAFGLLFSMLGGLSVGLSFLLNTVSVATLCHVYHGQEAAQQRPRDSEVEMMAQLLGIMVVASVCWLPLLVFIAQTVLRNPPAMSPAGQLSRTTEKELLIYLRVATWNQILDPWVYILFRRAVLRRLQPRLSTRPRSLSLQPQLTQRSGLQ

[14] = target: T4, Prostaglandin E2 receptor EP1 subtype (Homo sapiens, UniProt P34995); test: Inhibition of [3H]PGE-2 binding to Prostanoid EP1 receptor
T4 sequence (P34995 whole entry): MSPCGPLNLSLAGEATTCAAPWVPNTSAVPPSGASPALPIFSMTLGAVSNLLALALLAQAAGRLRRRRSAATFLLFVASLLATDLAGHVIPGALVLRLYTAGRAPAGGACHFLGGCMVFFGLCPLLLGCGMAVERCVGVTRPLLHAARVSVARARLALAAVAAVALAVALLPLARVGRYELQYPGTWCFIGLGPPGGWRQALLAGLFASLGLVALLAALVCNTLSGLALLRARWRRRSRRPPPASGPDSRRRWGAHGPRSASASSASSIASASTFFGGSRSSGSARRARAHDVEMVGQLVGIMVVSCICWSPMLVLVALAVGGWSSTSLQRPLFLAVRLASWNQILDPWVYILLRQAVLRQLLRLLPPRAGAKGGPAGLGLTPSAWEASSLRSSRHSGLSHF

Rattus norvegicus [15] = species: Rattus norvegicus; test: Inhibition of ADP-induced aggregation of rat platelets; format: functional, organism-based
Canis familiaris = species: Canis familiaris; test: Inhibition of ADP-induced aggregation of dog platelets; format: functional; settings: Canis lupus familiaris
[16] = Area Under Plasma concentration-time curve after peroral administration at a dose of 1 (mg/kg) in rat; format: ADME, organism-based; settings: po
[17] = Area Under Plasma concentration-time curve after peroral administration at a dose of 0.32 (mg/kg) in rat; format: ADME, organism-based; settings: po
[18] = Total body clearance of drug from the plasma after i.v. administration at a dose of 0.32 (mg/kg) in rat; format: ADME, organism-based; settings: iv, read-out: CLtot

SMILES: O=C(O)COc1cccc(C[C@@H]2CCCC3OC32c2nc(-c3ccccc3)c(-c3ccccc3)o2)c1 (stereo not given in full)
IC50 (Homo sapiens): 14 nM

SMILES: O=C([O-])COc1cccc(C[C@@H]2CCCC=C2c2nc(-c3ccccc3)c(-c3ccccc3)o2)c1.[Na+]
half-life [1]: 6.6 h | bioavailability [2]: 50% | Cmax [3]: 16.4 ng/mL | ED50 (Rattus norvegicus [4]): 0.032 mg/kg | IC50 [5]: 188 nM

SMILES: O=C(O)COc1cccc(C[C@@H]2CCC=CC2(O)c2nc(-c3ccccc3)c(-c3ccccc3)o2)c1 (stereo not given in full)
IC50 (Homo sapiens): 98 nM

SMILES: O=C(O)COc1cccc(C[C@@H]2CCC[C@H]3O[C@@]23c2nc(-c3ccccc3)c(-c3ccccc3)o2)c1
IC50 (Homo sapiens): 12 nM

More lines, main results first:

Ki (Prostacyclin receptor): 6.1 nM | Ki [6]: > 10000 nM | clearance [7]: 18.6 mL/min/kg | half-life [1]: 26.9 h | bioavailability [8]: 20% | Ki [9]: 2900 nM | Ki [10]: 3200 nM | Ki [11]: 7200 nM | Cmax [12]: 67.9 ng/mL | Ki [13]: 1400 nM | Ki (Thromboxane A2 receptor): 930 nM | Ki [14]: > 10000 nM | IC50 (Rattus norvegicus [15]): 300 nM | IC50 (Canis familiaris): 1470 nM | IC50 [5]: 12 nM | IC50 (Homo sapiens): 5.8 nM | AUC [16]: 168 ng·h/mL
SMILES: O=C([O-])COc1cccc(C[C@@H]2CCC[C@@H]3O[C@]23c2nc(-c3ccccc3)c(-c3ccccc3)o2)c1.[Na+]

Ki (Prostacyclin receptor): 41 nM | half-life [1]: 17 h | bioavailability [2]: 78% | Cmax [3]: 45.2 ng/mL | AUC [17]: 42.5 ng·h/mL | clearance [18]: 9.19 mL/min/kg | IC50 (Rattus norvegicus [15]): 2800 nM | IC50 (Homo sapiens): 56 nM
SMILES: O=C([O-])COc1cccc(C[C@@H]2CCC=C2c2nc(-c3ccccc3)c(-c3ccccc3)o2)c1.[Na+]
ED50 (Rattus norvegicus [4]): 1 mg/kg

IC50 (Homo sapiens): 116 nM
SMILES: O=C(O)COc1cccc(C[C@@H]2CCCC(O)=C2c2nc(-c3ccccc3)c(-c3ccccc3)o2)c1

Source: ChEMBL document CHEMBL1140242, “Metabolism investigation leading to novel drug design: orally active prostacyclin mimetics. Part 4” (Bioorg Med Chem Lett, 2005)
